Results reported in ChEMBL document CHEMBL2406921, “Regioselective synthesis, characterization and antimicrobial evaluation of S-glycosides and S,N-diglycosides of 1,2-Dihydro-5-(1H-indol-2-yl)-1,2,4-triazole-3-thione” (2013).

Columns and labels:
Assay type in all cases: functional
Conditions in all cases: read-out: DIZ
[1] = tested on: Fusarium oxysporum; experiment: Antifungal activity against Fusarium oxysporum at 5 mg/ml by paper disc diffusion method
[2] = tested on: Pseudomonas aeruginosa; experiment: Antibacterial activity against Pseudomonas aeruginosa at 5 mg/ml after 24 hrs by agar-diffusion technique
[3] = tested on: Rhizoctonia solani; experiment: Antifungal activity against Rhizoctonia solani at 5 mg/ml by paper disc diffusion method
[4] = tested on: Bacillus subtilis; experiment: Antibacterial activity against Bacillus subtilis at 5 mg/ml after 24 hrs by agar-diffusion technique
[5] = tested on: Aspergillus niger; experiment: Antifungal activity against Aspergillus niger at 5 mg/ml by paper disc diffusion method

| Structure (SMILES) | zone of inhibition at 5000 µg/mL [1] [mm] | zone of inhibition at 5000 µg/mL [2] [mm] | zone of inhibition at 5000 µg/mL [3] [mm] | zone of inhibition at 5000 µg/mL [4] [mm] | zone of inhibition at 5000 µg/mL [5] [mm] |
| --- | --- | --- | --- | --- | --- |
| CC(=O)N[C@@H]1[C@@H](OC(C)=O)[C@H](OC(C)=O)[C@@H](COC(C)=O)O[C@H]1Sc1n[nH]c(-c2cc3ccccc3[nH]2)n1 | 0 | 3.9 | 1.75 | 5.1 | 0 |
| CC(=O)OC[C@H]1O[C@@H](Sc2n[nH]c(-c3cc4ccccc4[nH]3)n2)[C@H](OC(C)=O)[C@@H](OC(C)=O)[C@@H]1OC(C)=O | 0 | 3.25 | 0.6 | 12 | 0 |
| NNC(=O)c1cc2ccccc2[nH]1 | 1.3 | 3 | 0.85 | 12 | 0 |
| O=C(N[C@H](CO)[C@H](O)c1ccc([N+](=O)[O-])cc1)C(Cl)Cl [CHLORAMPHENICOL] |  | 7.9 |  | 12 |  |
| CC(=O)OC[C@H]1O[C@@H](Sc2n[nH]c(-c3cc4ccccc4[nH]3)n2)[C@H](OC(C)=O)[C@@H](OC(C)=O)[C@H]1OC(C)=O | 2.1 | 0.5 | 0.75 | 12 | 0 |
| CCOC(=O)c1cc2ccccc2[nH]1 | 1.9 | 4.85 | 2.7 | 5.6 | 1.3 |
| CC(=O)OC[C@H]1O[C@@H](n2nc(-c3cc4ccccc4[nH]3)nc2S[C@@H]2O[C@H](COC(C)=O)[C@@H](OC(C)=O)[C@H](OC(C)=O)[C@H]2OC(C)=O)[C@H](OC(C)=O)[C@@H](OC(C)=O)[C@@H]1OC(C)=O | 1.95 | 2.5 | 1.15 | 6.5 | 0 |
| S=c1nc(-c2cc3ccccc3[nH]2)[nH][nH]1 | 1.7 | 3.5 | 0.8 | 12 | 0 |
| NC(=S)NNC(=O)c1cc2ccccc2[nH]1 | 1 | 2.5 | 1.05 | 12 | 0 |
| CCOC(=O)/C(C)=N/Nc1ccccc1 | 2.3 | 2.65 | 1.95 | 12 | 1.85 |
